Source: patent US20190241569A1, “3-(ARYL OR HETEROARYL) METHYLENEINDOLIN-2-ONE DERIVATIVES AS INHIBITORS OF CANCER STEM CELL PATHWAY KINASES FOR THE TREATMENT OF CANCER” (Boston Biomedical, Inc., priority 2013, published 2019)
Where two headings read alike, the source gives them in different places.

How the values were obtained:
Assay type in all cases: cell-based
A549 = experiment: Bulk cancer cells, Cell Titer-Glo 72 hours (Test Example 2); details: Homo sapiens
Protocol: (§1) Tubes of 3× drug (60 uM in 500 uL complete media) were prepared from 5 mM stock solutions in DMSO. […] To treat cells, 50 uL of drug from the dilution plate was removed and added to the cell plates. […] Cells were harvested 72 hours after drug addition using Cell Titer-Glo (Promega) and luminescence measured on a plate reader.

ACHN = experiment: as above; details: Homo sapiens, ACHN, 72 h
Protocol: as §1

FaDu = experiment: as above; details: Homo sapiens
Protocol: as §1

FaDu CSC = experiment: Cancer stem cells, Cell Titer-Glo 72 hours (Test Example 3); details: Homo sapiens, FaDu, 72 h
ACHN CSC = experiment: as above
A549 CSC = experiment: as above; details: Homo sapiens

Question: Which results are given for CCN(CC)CCNC(=O)c1c(C)[nH]c(/C=C2\C(=O)Nc3cc(-c4nccc5ccccc45)ccc32)c1C [Example 255]?
Answer: IC50 (A549): 7.14 µM; IC50 (ACHN): 6.51 µM; IC50 (FaDu): 9.12 µM; IC50 (FaDu CSC): 24.4 µM; IC50 (ACHN CSC; Homo sapiens, ACHN, 72 h): 1.91 µM

Question: How did the IC50 (A549) turn out when CCN(CC)CCNC(=O)c1c(C)[nH]c(/C=C2\C(=O)Nc3ccc(-c4cn(-c5ccccc5)nn4)cc32)c1C [Example 48] was run?
Answer: 4.88 µM

Question: And the IC50 (ACHN)?
Answer: 4.73 µM

Question: What about the IC50 (FaDu) of the same compound?
Answer: 6.74 µM

Question: What about the IC50 (FaDu CSC) of the same compound?
Answer: 2.9 µM

Question: What does the source list for CCN(CC)CCNC(=O)c1c(C)[nH]c(/C=C2\C(=O)Nc3ccc(C4CCN(c5ccccc5)CC4)cc32)c1C [Example 42]?
Answer: IC50 (A549): 16 µM; IC50 (FaDu): 1.89 µM; IC50 (FaDu CSC): 1.3 µM

Question: What does the source list for CCN(CC)CCNC(=O)c1ccc(/C=C2\C(=O)Nc3ccc(-c4csc(-c5ccccc5)n4)cc32)[nH]c1=O [Example 121]?
Answer: IC50 (A549): 3.64 µM; IC50 (ACHN): 3.31 µM; IC50 (FaDu): 3.1 µM; IC50 (FaDu CSC): 6.15 µM

Question: With Cc1[nH]c(/C=C2\C(=O)Nc3ccc(-c4cnn(-c5ccccc5)c4)cc32)c(C)c1C(=O)N1CCN(C)CC1 [Example 6] as the compound, how does the IC50 (A549) read?
Answer: 6.91 µM

Question: And the IC50 (ACHN)?
Answer: 3.4 µM

Question: What about the IC50 (FaDu) of the same compound?
Answer: 3.62 µM

Question: And the IC50 (FaDu CSC)?
Answer: 0.31 µM

Question: And the IC50 (A549 CSC)?
Answer: 4.49 µM

Question: Which IC50 (ACHN CSC; Homo sapiens, ACHN, 72 h) does the source give for Cc1cc(C)c(/C=C2\C(=O)Nc3ccc(-c4cnc(-c5ccccc5)cn4)cc32)[nH]1 [Example 233] here?
Answer: 6.8 µM

Question: With Cc1[nH]c(/C=C2\C(=O)Nc3ccc(-c4cnn(-c5ccccn5)c4)cc32)c(C)c1C(=O)N1CCN(C)CC1 [Example 31] as the compound, how does the IC50 (A549) read?
Answer: 18.9 µM

Question: And the IC50 (FaDu)?
Answer: 3.67 µM

Question: And the IC50 (FaDu CSC)?
Answer: 0.24 µM

Question: And the IC50 (A549 CSC)?
Answer: 11.7 µM

Question: Which results are given for CCN(CC)CCNC(=O)c1c(C)[nH]c(/C=C2\C(=O)Nc3ccc(-c4n[nH]c5c(N)cccc45)cc32)c1C [Example 268]?
Answer: IC50 (A549): 11.6 µM; IC50 (ACHN): 12 µM; IC50 (FaDu): 7.09 µM; IC50 (FaDu CSC): 28.4 µM; IC50 (ACHN CSC; Homo sapiens, ACHN, 72 h): 30.9 µM

Question: For Cc1ccc(-c2ccc3c(c2)/C(=C/c2[nH]c(C)cc2C)C(=O)N3)cn1 [Example 213], which IC50 (A549) is on record?
Answer: 25.8 µM

Question: And the IC50 (ACHN)?
Answer: 24.9 µM

Question: What about the IC50 (ACHN CSC) of the same compound?
Answer: 0.01 µM

Question: Cc1cc(C)c(/C=C2\C(=O)Nc3ccc(-c4cnc5cccnn45)cc32)[nH]1 [Example 234] was tested. Which IC50 (A549) did it give?
Answer: 12.5 µM

Question: What about the IC50 (FaDu) of the same compound?
Answer: 5.23 µM

Question: And the IC50 (FaDu CSC)?
Answer: 1.55 µM

Question: And the IC50 (A549 CSC)?
Answer: 8.66 µM

Question: What does the source list for CCOC(=O)c1[nH]c(/C=C2\C(=O)Nc3ccc(-c4csc(-c5ccccc5)n4)cc32)c2c1CCCC2 [Example 164]?
Answer: IC50 (ACHN): 0.83 µM; IC50 (FaDu CSC): 2.91 µM; IC50 (ACHN CSC; Homo sapiens, ACHN, 72 h): 1.6 µM

Question: Which results are given for O=C1Nc2ccc(-c3csc(-c4ccccc4)n3)cc2/C1=C/c1ccc(N2CCNCC2)cc1 [Example 171]?
Answer: IC50 (A549): 5.79 µM; IC50 (FaDu): 2.59 µM

Question: Which IC50 (A549 CSC) does the source give for Cc1[nH]c(/C=C2\C(=O)Nc3ccc(-c4csc(-c5ccccc5)n4)cc32)c(C)c1CCC(=O)O [Example 148] here?
Answer: 1.65 µM

Question: What does the source list for CCN(CC)CCNC(=O)c1c(C)[nH]c(/C=C2\C(=O)Nc3ccc(-c4cnc(-c5ccccc5)cn4)cc32)c1C [Example 199]?
Answer: IC50 (A549): 16.9 µM; IC50 (ACHN): 25.8 µM; IC50 (FaDu): 17.5 µM; IC50 (FaDu CSC): 39.1 µM; IC50 (A549 CSC): 43.6 µM

Question: O=C1Nc2ccc(-c3csc(-c4ccccc4)n3)cc2/C1=C/c1[nH]cc2ccccc12 [Example 162] was tested. Which IC50 (FaDu CSC) did it give?
Answer: 5.04 µM

Question: And the IC50 (ACHN CSC; Homo sapiens, ACHN, 72 h)?
Answer: 4.08 µM

Question: How did the IC50 (A549) turn out when Cc1ccc(-c2nc(-c3ccc4c(c3)/C(=C/c3[nH]c(C)c(C(=O)N5CCN(C)CC5)c3C)C(=O)N4)cs2)cc1 [Example 104] was run?
Answer: 8.55 µM

Question: And the IC50 (ACHN)?
Answer: 4.25 µM

Question: And the IC50 (FaDu)?
Answer: 7.87 µM

Question: And the IC50 (FaDu CSC)?
Answer: 1.98 µM

Question: And the IC50 (A549 CSC)?
Answer: 0.45 µM

Question: Which results are given for Cc1cc(C)c(/C=C2\C(=O)Nc3ccc(-c4csc(-n5cccn5)n4)cc32)[nH]1 [Example 232]?
Answer: IC50 (A549): 9.76 µM; IC50 (ACHN): 9 µM; IC50 (FaDu): 20.8 µM; IC50 (FaDu CSC): 27.2 µM; IC50 (A549 CSC): 16.2 µM

Question: Cc1cc(C)c(/C=C2\C(=O)Nc3ccc(-c4ncccc4C)cc32)[nH]1 [Example 211] was tested. Which IC50 (A549) did it give?
Answer: 22.4 µM

Question: What about the IC50 (ACHN) of the same compound?
Answer: 7.95 µM

Question: What about the IC50 (FaDu CSC) of the same compound?
Answer: 41.1 µM

Question: What about the IC50 (ACHN CSC; Homo sapiens, ACHN, 72 h) of the same compound?
Answer: 0.01 µM

Question: What does the source list for CCN(CC)CCNC(=O)c1c(C)[nH]c(/C=C2\C(=O)Nc3ccc(-c4cnc(SC)cn4)cc32)c1C [Example 201]?
Answer: IC50 (A549): 6.06 µM; IC50 (ACHN): 12.3 µM; IC50 (FaDu): 5.96 µM; IC50 (A549 CSC): 30 µM

Question: Which IC50 (A549) does the source give for Cc1[nH]c(/C=C2\C(=O)Nc3ccc(-c4csc(-c5ccccc5)n4)cc32)c(C)c1S(=O)(=O)N1CCCC1 [Example 146] here?
Answer: 2.86 µM

Question: What about the IC50 (ACHN) of the same compound?
Answer: 12.6 µM

Question: And the IC50 (FaDu)?
Answer: 5.48 µM

Question: And the IC50 (FaDu CSC)?
Answer: 6.56 µM

Question: And the IC50 (ACHN CSC; Homo sapiens, ACHN, 72 h)?
Answer: 5.05 µM

Question: What does the source list for CCN(CC)CCNC(=O)c1c(C)[nH]c(/C=C2\C(=O)Nc3ccc(-c4cnc(-c5ccccc5)o4)cc32)c1C [Example 17]?
Answer: IC50 (ACHN): 12.2 µM; IC50 (FaDu): 9.73 µM; IC50 (FaDu CSC): 41.5 µM

Question: For COc1ccc(-c2ccc3c(c2)/C(=C/c2[nH]c(C)cc2C)C(=O)N3)nc1 [Example 227], which IC50 (A549) is on record?
Answer: 0.07 µM

Question: How did the IC50 (ACHN) turn out when Cc1cc(C)c(/C=C2\C(=O)Nc3ccc(-c4cnsc4)cc32)[nH]1 [Example 220] was run?
Answer: 42.8 µM

Question: What about the IC50 (FaDu) of the same compound?
Answer: 26.7 µM

Question: And the IC50 (FaDu CSC)?
Answer: 43.4 µM

Question: What about the IC50 (ACHN CSC; Homo sapiens, ACHN, 72 h) of the same compound?
Answer: 17.1 µM

Question: How did the IC50 (ACHN) turn out when Cc1cc(C)c(/C=C2\C(=O)Nc3ccc(-c4csc(-c5ccccc5)n4)cc32)[nH]1 [Example 138] was run?
Answer: 5.31 µM

Question: And the IC50 (FaDu)?
Answer: 7.87 µM

Question: What about the IC50 (FaDu CSC) of the same compound?
Answer: 6.49 µM

Question: With CCN(CC)CCNC(=O)c1c(C)[nH]c(/C=C2\C(=O)Nc3ccc(C4CCN(C5CCN(C(C)=O)CC5)CC4)cc32)c1C [Example 45] as the compound, how does the IC50 (A549) read?
Answer: 29.6 µM

Question: And the IC50 (ACHN)?
Answer: 4.8 µM

Question: What about the IC50 (FaDu) of the same compound?
Answer: 3.32 µM

Question: What about the IC50 (FaDu CSC) of the same compound?
Answer: 1 µM
